Results taken from patent publication US20220395549A1, “COMPOSITIONS OF THE OLEA EUROPAEA V. SYLVESTRIS WITH ANTIMICROBIAL EFFICACY” (TAPROGGE GMBH, priority 2019, published 2022).

Tested on: S. aureus ATCC 6538
Experiment: quantitative suspension assay of mono-substances
Type: cell-based, Staphylococcus aureus
Procedure: A stock solution was prepared by adding 0.1 ml methanol to 10.48 mg of hydroxytyrosol. After dissolving of the compound, the solution was quantitatively transferred into 4.9 ml water for injection (WFI), effective concentration of hydroxytyrosol: 2.0 mg/ml.
Using the stock solution, five (5) concentrations of hydroxytyrosol in a geometric series of 2 mg hydroxytyrosol/ml to 0.125 mg hydroxytyrosol/ml were tested in a quantitative suspension assay.
2 ml of the stock solution and the dilutions (V1 to V4), respectively, and a methanol-solution of 2% as a positive control were inoculated with 0.1 ml of a test suspension of S. aureus ATCC 6538, adjusted to about 2.0×10^5 CFU/0.1 ml, resulting in about 100,000 CFU/ml in the individual assays.
Samples (0.1 ml) were then taken at t 0, 12, 30, and 60 minutes as well as t 24 48, and 72 hours after inoculation and culturing at between 20-25° C., and were diluted with 0.9 ml of 0.9% NaCl solution. The samples were plated on blood agar plates, and incubated up to 5 days at between 30-35° C.
A stock solution was prepared at a concentration of 2 mg/ml of oleocanthal. The compound was dissolved by in ethanol (99.8%) and WFI was added.
Using the stock solution, concentrations of oleocanthal in a geometric series of 1 mg oleocanthal/ml to 0.125 mg oleocanthal/ml were tested in a quantitative suspension assay.
2 ml of the stock solution and the dilutions (V1 to V4), respectively, and a ethanol-solution of 2.85% as a positive control were inoculated with 0.055 ml of a test suspension of S. aureus ATCC 6538, adjusted to about 3.6×10^5 CFU/0.1 ml, resulting in about 99,000 CFU/ml in the individual assays.
A stock solution was prepared at a concentration of 1 mg/ml of oleacin. The compound was dissolved by in ethanol (99.8%) and WFI was added.
Using the stock solution, concentrations of oleacin at 0.25 mg oleacin/ml and 0.125 mg oleacin/ml were tested in a quantitative suspension assay.
2 ml of the stock solution and the dilutions (V1 and V2), respectively, and a ethanol-solution of 0.44% as a positive control were inoculated with 0.055 ml of a test suspension of S. aureus ATCC 6538, adjusted to about 3.5×10^5 CFU/0.1 ml, resulting in about 99,000 CFU/ml in the individual assays.
A stock solution was prepared by adding 0.1 ml chloroform to 25 mg of uvaol. After dissolving of the compound, the solution was quantitatively transferred into 12.4 ml water for injection (WFI), effective concentration of uvaol: 2.0 mg/ml.
Using the stock solution, five (5) concentrations of uvaol in a geometric series of 2 mg uvaol/ml to 0.125 mg uvaol/ml were tested in a quantitative suspension assay.
2 ml of the stock solution and the dilutions (V1 to V4), respectively, and a chloroform-solution of 0.8% as a positive control were inoculated with 0.1 ml of a test suspension of S. aureus ATCC 6538, adjusted to about 2.0×10^5 CFU/0.1 ml, resulting in about 100,000 CFU/ml in the individual assays.
A stock solution was prepared by adding 0.1 ml chloroform to 10.45 mg of erythrodiol. After dissolving of the compound, the solution was quantitatively transferred into 4.9 ml water for injection (WFI), effective concentration of erythrodiol: 2.0 mg/ml.
2 ml of the stock solution and the dilutions (V1 to V4), respectively, and a chloroform-solution of 2% as a positive control were inoculated with 0.1 ml of a test suspension of S. aureus ATCC 6538, adjusted to about 3.6×10^5 CFU/0.1 ml, resulting in about 100.000 CFU/ml in the individual assays.

CC=C(C=O)C(CC=O)CC(=O)OCCc1ccc(O)c(O)c1 (stereo in doubt) [oleacin]
Number of CFUs (0.125 Oci/ml, t 0 min, initial cell load 9.9 × 10^4 CFU/ml): 4.3 × 10^3 CFU/ml
Number of CFUs (0.125 Oci/ml, t 12 min, initial cell load 9.9 × 10^4 CFU/ml): <100 CFU/ml
Number of CFUs (0.125 Oci/ml, t 30 min, initial cell load 9.9 × 10^4 CFU/ml): <100 CFU/ml
Number of CFUs (0.125 Oci/ml, t 60 min, initial cell load 9.9 × 10^4 CFU/ml): <100 CFU/ml
Number of CFUs (0.125 Oci/ml, t 24 h, initial cell load 9.9 × 10^4 CFU/ml): <100 CFU/ml
Number of CFUs (0.125 Oci/ml, t 48 h, initial cell load 9.9 × 10^4 CFU/ml): <100 CFU/ml
Number of CFUs (0.125 Oci/ml, t 72 h, initial cell load 9.9 × 10^4 CFU/ml): <100 CFU/ml
Number of CFUs (0.25 Oci/ml, t 0 min, initial cell load 9.9 × 10^4 CFU/ml): 1.8 × 10^3 CFU/ml
Number of CFUs (0.25 Oci/ml, t 12 min, initial cell load 9.9 × 10^4 CFU/ml): <100 CFU/ml
Number of CFUs (0.25 Oci/ml, t 30 min, initial cell load 9.9 × 10^4 CFU/ml): <100 CFU/ml
Number of CFUs (0.25 Oci/ml, t 60 min, initial cell load 9.9 × 10^4 CFU/ml): <100 CFU/ml
Number of CFUs (0.25 Oci/ml, t 24 h, initial cell load 9.9 × 10^4 CFU/ml): <100 CFU/ml
Number of CFUs (0.25 Oci/ml, t 48 h, initial cell load 9.9 × 10^4 CFU/ml): <100 CFU/ml
Number of CFUs (0.25 Oci/ml, t 72 h, initial cell load 9.9 × 10^4 CFU/ml): <100 CFU/ml
antimicrobial effect, summary in words (detection limit of the assay 100 CFU/ml): immediate effect at the concentrations tested

OCCc1ccc(O)c(O)c1 [Hydroxytyrosol]
Number of CFUs (0.125 Hyd/ml, t 0 min, initial cell load 1.7 × 10^5 CFU/ml): 7.0 × 10^4 CFU/ml
Number of CFUs (0.125 Hyd/ml, t 12 min, initial cell load 1.7 × 10^5 CFU/ml): 7.4 × 10^4 CFU/ml
Number of CFUs (0.125 Hyd/ml, t 30 min, initial cell load 1.7 × 10^5 CFU/ml): 7.0 × 10^4 CFU/ml
Number of CFUs (0.125 Hyd/ml, t 60 min, initial cell load 1.7 × 10^5 CFU/ml): 6.8 × 10^4 CFU/ml
Number of CFUs (0.125 Hyd/ml, t 24 h, initial cell load 1.7 × 10^5 CFU/ml): 2.8 × 10^3 CFU/ml
Number of CFUs (0.125 Hyd/ml, t 48 h, initial cell load 1.7 × 10^5 CFU/ml): <100 CFU/ml
Number of CFUs (0.125 Hyd/ml, t 72 h, initial cell load 1.7 × 10^5 CFU/ml): 7.1 × 10^2 CFU/ml
Number of CFUs (0.25 Hyd/ml, t 0 min, initial cell load 1.7 × 10^5 CFU/ml): 5.7 × 10^4 CFU/ml
Number of CFUs (0.25 Hyd/ml, t 12 min, initial cell load 1.7 × 10^5 CFU/ml): 5.1 × 10^4 CFU/ml
Number of CFUs (0.25 Hyd/ml, t 30 min, initial cell load 1.7 × 10^5 CFU/ml): 5.9 × 10^4 CFU/ml
Number of CFUs (0.25 Hyd/ml, t 60 min, initial cell load 1.7 × 10^5 CFU/ml): 7.4 × 10^4 CFU/ml
Number of CFUs (0.25 Hyd/ml, t 24 h, initial cell load 1.7 × 10^5 CFU/ml): 1.4 × 10^3 CFU/ml
Number of CFUs (0.25 Hyd/ml, t 48 h, initial cell load 1.7 × 10^5 CFU/ml): <100 CFU/ml
Number of CFUs (0.25 Hyd/ml, t 72 h, initial cell load 1.7 × 10^5 CFU/ml): <100 CFU/ml
Number of CFUs (0.5 Hyd/ml, t 0 min, initial cell load 1.7 × 10^5 CFU/ml): 7.0 × 10^4 CFU/ml
Number of CFUs (0.5 Hyd/ml, t 12 min, initial cell load 1.7 × 10^5 CFU/ml): 6.6 × 10^4 CFU/ml
Number of CFUs (0.5 Hyd/ml, t 30 min, initial cell load 1.7 × 10^5 CFU/ml): 6.4 × 10^4 CFU/ml
Number of CFUs (0.5 Hyd/ml, t 60 min, initial cell load 1.7 × 10^5 CFU/ml): 6.1 × 10^4 CFU/ml
Number of CFUs (0.5 Hyd/ml, t 24 h, initial cell load 1.7 × 10^5 CFU/ml): 2.0 × 10^2 CFU/ml
Number of CFUs (0.5 Hyd/ml, t 48 h, initial cell load 1.7 × 10^5 CFU/ml): <100 CFU/ml
Number of CFUs (0.5 Hyd/ml, t 72 h, initial cell load 1.7 × 10^5 CFU/ml): <100 CFU/ml
Number of CFUs (1.0 Hyd/ml, t 0 min, initial cell load 1.7 × 10^5 CFU/ml): 6.8 × 10^4 CFU/ml
Number of CFUs (1.0 Hyd/ml, t 12 min, initial cell load 1.7 × 10^5 CFU/ml): 7.8 × 10^4 CFU/ml
Number of CFUs (1.0 Hyd/ml, t 30 min, initial cell load 1.7 × 10^5 CFU/ml): 7.4 × 10^4 CFU/ml
Number of CFUs (1.0 Hyd/ml, t 60 min, initial cell load 1.7 × 10^5 CFU/ml): 7.2 × 10^4 CFU/ml
Number of CFUs (1.0 Hyd/ml, t 24 h, initial cell load 1.7 × 10^5 CFU/ml): <100 CFU/ml
Number of CFUs (1.0 Hyd/ml, t 48 h, initial cell load 1.7 × 10^5 CFU/ml): <100 CFU/ml
Number of CFUs (1.0 Hyd/ml, t 72 h, initial cell load 1.7 × 10^5 CFU/ml): <100 CFU/ml
Number of CFUs (2.0 Hyd/ml, t 0 min, initial cell load 1.7 × 10^5 CFU/ml): 7.0 × 10^4 CFU/ml
Number of CFUs (2.0 Hyd/ml, t 12 min, initial cell load 1.7 × 10^5 CFU/ml): 8.9 × 10^4 CFU/ml
Number of CFUs (2.0 Hyd/ml, t 30 min, initial cell load 1.7 × 10^5 CFU/ml): 5.9 × 10^4 CFU/ml
Number of CFUs (2.0 Hyd/ml, t 60 min, initial cell load 1.7 × 10^5 CFU/ml): 5.9 × 10^4 CFU/ml
Number of CFUs (2.0 Hyd/ml, t 24 h, initial cell load 1.7 × 10^5 CFU/ml): <100 CFU/ml
Number of CFUs (2.0 Hyd/ml, t 48 h, initial cell load 1.7 × 10^5 CFU/ml): <100 CFU/ml
Number of CFUs (2.0 Hyd/ml, t 72 h, initial cell load 1.7 × 10^5 CFU/ml): <100 CFU/ml
